The subject of this series is DILI patient-derived organoid (liver organoid from iPS cells 16-24). How it is done: Each of iPS cells derived from human healthy person (1383D2; Kyoto University iPS Research Institute) and iPS cells derived from patients with drug-induced liver injury (16-24; Yokohama City University) were cultured at 5% CO2 and 37° C. for 3 days in a medium obtained by adding 1% B-27 Supplements (GIBCO), BMP4 (25 ng/ml) and CHIR99021 (8 μM) to DMEM/F-12 (Gibco) (10 ml), to induce mesodermal cells.
Each of iPS cells derived from human healthy person (1383D2; Kyoto University iPS Research Institute) and iPS cells derived from patients with drug-induced liver injury (16-24; Yokohama City University) were cultured at 5% CO2 and 37° C. for 5 days in a medium obtained by adding Wnt3a (50 ng/mL) and activin A (100 ng/ml) to a basal medium RPMI (FUJIFILM Corporation) (2 ml), to induce endodermal progenitor cells.
Each of iPS cells derived from human healthy person (1383D2; Kyoto University iPS Research Institute) and iPS cells derived from patients with drug-induced liver injury (16-24; Yokohama City University) were cultured at 5% CO2 and 37° C. for 3 days in a medium obtained by adding 1% B-27 Supplements (GIBCO), BMP4 (25 ng/ml) and CHIR99021 (8 μM) to a basal mixed medium DMEM/F-12 (Gibco) (10 ml), to induce mesodermal progenitor cells. […]

Take `CC1(C)S[C@@H]2[C@H](NC(=O)[C@H](N)c3ccc(O)cc3)C(=O)N2[C@H]1C(=O)O` [Amoxicillin trihydrate, amoxicillin trihydrate]: the “Toxicity to liver organoid produced using cells derived from a DILI patient, co-cultured with blood cells (result in words)” value was “DILI was not observed”.
